Data set [1] deals with gonococci. As to conditions: 1.0, 0.1, or 0.01 percent alcohol, absence of cervical cells (data not shown). The method, then: Consequently, it was determined if exogenously added PLD substrates could compete with cervical cell constituents for NgPLD activity and in doing so interfere with the role of NgPLD in gonococcal invasion.
The test system of data set [2] is Ectocervical Cells. Put plainly: Association and invasion (gentimicin-resistance) assays, primary ectocervical (pex) cells. Type of data set: cell-based, human. As to the method: (§1) 8. N. gonorrhoeae Attachment to and Invasion of Primary, Human, Cervical Cells. Primary cervical cell monolayers were infected with wild-type or PLD mutant gonococci as outlined above. Variable concentrations of Streptomyces spp. PLD (SsPLD) (Sigma), PMA, or 4-α phorbol were included in association (adherence and invasion) or invasion assays, as noted. Cervical cells were preincubated (30 minutes, 37° C.) with 200 nM PMA or 4-α phorbol before the addition of gonococci. 10 units ml^−1 SsPLD was added simultaneously with gonococci. Alternatively, where noted, cervical cell monolayers were pre-incubated (30 minutes, 37° C.) with pervanadate, which was made by mixing 100 μM ortho-sodium vanadate in 3 mM hydrogen peroxide. In separate assays, infection supernatants were collected from wild-type or PLD mutant-infected cervical cell monolayers, gonococci were removed by filtration through a 0.22 μm syringe filter (i.e., wild-type or mutant primed supernatants) and were added to association and/or invasion assays, as noted. The ability of gonococci to adhere to and/or invade pex and pen cells was quantitatively determined using standard gentimicin-resistance assays, performed as described previously (Edwards et al., 2000), and in which chemical or protein additives were included or excluded from the invasion assay as described above. The total association (i.e., adherence and invasion) of gonococci with pex and pen cells was quantitated by the omission of gentimicin from the above described invasion assay. Percent invasion of N. gonorrhoeae 1291 or 1291ΔPLDin the presence or absence of experimental additives was determined as a function of the original inoculum and the number of colonies formed with subsequent plating of the cellular lysate. A Kruskal-Wallis non-parametric analysis of variance was used to determine the statistical significance of the association and invasion assays described above.
N. gonorrhoeae Attachment to and Invasion of Primary, Human, Cervical Cells. Primary cervical cell monolayers were infected with wild-type or PLD mutant gonococci as outlined above. Variable concentrations of PtC (Sigma), ethanol, 2-butanol, or Streptomyces spp. PLD (SsPLD) (Sigma) were included in association (adherence and invasion) or invasion assays, as noted. PtC, ethanol, 2-butanol, or 10 units ml^−1 SsPLD were added simultaneously with gonococci. In separate assays, infection supernatants were collected from wild-type or PLD mutant-infected cervical cell monolayers, gonococci were removed by filtration through a 0.22 μm syringe filter (to yield primed wild-type or mutant supernatants), which were then added to association and/or invasion assays, as noted. The ability of gonococci to adhere to and/or invade pex and pen cells was quantitatively determined using standard gentimicin-resistance assays, performed as described previously (Edwards et al., 2000) and in which chemical or protein additives were included or excluded from the invasion assay as described above. The total association (i.e., adherence and invasion) of gonococci with pex and pen cells was quantitated by the omission of gentimicin from the above described invasion assay. Percent invasion of N. gonorrhoeae 1291 or 1291ΔPLD in the presence or absence of experimental additives was determined as a function of the original inoculum and the number of colonies formed with subsequent plating of the cellular lysate. Inhibition of gonococcal attachment and/or invasion by exogenous PtC, ethanol, or 2-butanol was determined as a normalized function of the ability of gonococci to attach to and/or invade primary cervical cells in the absence of the competimer inhibitor. A Kruskal-Wallis non-parametric analysis of variance was used to determine the statistical significance of the association and invasion assays described above.

The test system of data set [3] is primary cervical cells. In words: Association and invasion assays, primary cervical cells (cell type not specified). Type of data set: cell-based, human. The method, then: The anti-PLD antibody was screened for specificity to PLD using assays well-known to the art.
as §1

For data set [4], the system named is Endocervical Cells. In words: Association and invasion (gentimicin-resistance) assays, primary endocervical (pen) cells. Type of data set: cell-based, human. Particulars: 1291 + 100 nM DPG. As to the method: as §1, with “Alternatively, where noted, cervical cell monolayers were pre-incubated (30 minutes, 37° C.) with pervanadate, which was made by mixing 100 μM ortho-sodium vanadate in 3 mM hydrogen peroxide. In separate assays, infection supernatants were collected from wild-type or PLD mutant-infected cervical cell monolayers, gonococci were removed by filtration through a 0.22 μm syringe filter (i.e., wild-type or mutant primed supernatants) and were added to association and/or invasion assays, as noted.” left out, “A Kruskal-Wallis non-parametric analysis of variance was used to determine the statistical significance of the association and invasion assays described above.” left out

The mark [5] stands for this setting: 1291 WT, alcohol competimer 0.01 %.
Where [6] appears, read: 1291 WT, alcohol competimer 0.1 %.
Setting [7] is: 1291 WT, alcohol competimer 1.0 %.
[8] abbreviates: Ectocervical Cells, 1291 + 100 nM DPG.

Consider `CCC(C)O` (stereo not shown) [2-Butanol, 2-butanol], for which, in data set [1], the “survival of gonococci” value is listed as “no significant difference in survival”. In addition, the “Invasion (%)” value in data set [2] (setting [5]) is recorded as 2.8661 (0.53) %; in data set [2] (setting [6]), 2.7087 (0.47) %; in data set [2] (setting [7]) it was 2.6869 (0.47) %; in data set [2] (1291ΔPLD, alcohol competimer 0.01 %), 0.2819 (0.02) %; in data set [2] (1291ΔPLD, alcohol competimer 0.1 %), 0.3172 (0.03) %; in data set [2] (1291ΔPLD, alcohol competimer 1.0 %) it was 0.2960 (0.05) %.

`O=C(O)C(COP(=O)(O)O)OP(=O)(O)O` (stereo not shown) [DPG, 2,3-diphosphoglycerate]: the results for the “Association, Mean” value in data set [2] (setting [8]) and in data set [4] were 15.31 and 6.97, respectively. Further, the “Invasion, Mean” value was determined as 0.36 in data set [2] (setting [8]) and 0.21 in data set [4]. The “effect on PLD activity, association and invasion of cervical cells by gonococci” value in data set [3] is “inhibits gonococcal association and invasion”.

Consider `CCO` [Ethanol, ethanol], for which the “survival of gonococci” value in data set [1] is “no significant difference in survival”. Also, the “Inhibition (%)” value in data set [2] (setting [5]) is recorded as 74.9582 (0.87) %; in data set [2] (setting [6]), 80.9243 (1.41) %; in data set [2] (1291 WT, alcohol competimer 1.0 %, variance in parentheses), 90.7346 (0.92) %. Besides, the results for the “Invasion (%)” value in data set [2] (setting [5]), in data set [2] (setting [6]) and in data set [2] (setting [7]) were 0.6957 (0.02) %, 0.5288 (0.01) % and 0.2564 (0.01) %, respectively.

These data come from US7261901B2, “Vaccine and compositions for the prevention and treatment of neisserial infections” (University of Iowa Research Foundation, priority 2001, dated 2007).
